Assay [1] deals with Heat shock protein HSP90 (Homo sapiens) (UniProt P07900+P08238). As to the kind of experiment: Inhibition of Hsp90 assessed by degradation of client proteins Her2 and Akt. It is filed as protein assay.
The test system of another assay is MCF7. As to the kind of experiment: Antiproliferative activity against human MCF7 cells. Type of assay: functional, cell-based.

Active and inactive are the calls of the source. The calls are words filed in the database; no cut-off is given here.

As a reminder, the IC50 is the concentration needed to halve the response being measured. A high value points to lower potency. On to `COc1c(O)cc2c(O)c1CC(C)OC(=O)c1c(O)cc(O)c(Cl)c1CCC(=O)N2` (configuration not stated) [RADANAMYCIN], for which the result in assay [1] was Active. In the assay with MCF7, the IC50 was determined as 1200 nM.
